In patent US7321046B2, “Analogs of dictyostatin, intermediates therefor and methods of synthesis thereof” (University of Pittsburgh, priority 2002, dated 2008):

Legend:
Bovine brain tubulin = test system: T1, Bovine brain tubulin; test: Pelleting assay (tubulin assembly EC50 determination); assay type: biochemical; details: for % Tubulin polymerized by 50 μM test agent / EC50: tubulin 10 μM in 0.2 M MSG, 15 min at 20° C.; for EC50: concentration required to polymerize 50% of tubulin, read-out: EC50 (μM) ± SD (N)
T1 construct: Bovine brain tubulin (10 μM) in 0.2 M MSG, 15 min at 20° C
Method: Dictyostatin and representative analogs were evaluated in a quantitative assay for their ability to promote tubulin polymerization. […] When the percent polymer formed was determined in the reactions, a comparison of the activities of all the analogs could be made.
The assay was performed under three different reaction conditions following the procedure reported earlier (Gapud et al., 2004). Reaction condition 1 included 0.2 M monosodium glutamate (MSG), 10 μM tubulin, 5% DMSO and varying concentrations of test agents. Reaction condition 2 included 0.8 M MSG, 400 μM GTP, 10 μM tubulin, 5% DMSO, and varying concentrations of test agents. Reaction condition 3 had 0.6 M MSG, 200 μM GTP, and 10 μM tubulin, and 5% DMSO, and varying concentrations of the test agents. The experimental protocol for all the three reaction conditions was the following. The reaction mixtures were incubated at room temperature (20-22° C.) for 15 min and spun for 10 min at 14,000 rpm in an Eppendorf microtube centrifuge. Aliquots of the supernatants were removed and assayed for protein content by the method of Lowry.

HeLa cells = test: Multiparameter fluorescence high information content analysis of cellular effects; assay type: cell-based; design: unit not given here; details: 24 h treatment; for Minimum detectable cellular change, Nuclear condensation: Hoechst 33342
Method: HeLa cells were plated on collagen-coated 384-well microtiter plates, allowed to attach, then treated for 24 h with test agents. Test agent concentrations began at 1 μM, and two-fold dilutions were made to levels below 1 nM. After the treatment period, the cells were fixed with formalin and their chromatin stained with Hoechst 33342. Cells were permeabilized and treated with primary antibodies for α-tubulin and phosphohistone H3, and then with fluorophore-labeled secondary antibodies. The three fluorescent channels were then examined on an ArrayScan II, which gives quantitative pixel distribution and density information in each channel on a per cell basis.
HeLa cells growing at log phase were trypsinized and plated in 40 μL at a density of 7,000-8,000 cells per well in calf skin collagen I-coated 384-well plates (Falcon #3962; Fisher Scientific). Cells were exposed to test agents or 0.5% DMSO within 2-8 h of plating. Concentrated DMSO stock solutions of all test agents were diluted into solutions of HBSS medium plus 10% FBS and added to the microplate wells (10 μL per well), using an automated liquid handling system (Biomek® 2000; Beckman-Coulter, Inc.) to provide a serial 2-fold dilution of each test agent. The cells were incubated in the presence of test agents for 24 h. At the end of the incubation, the medium was removed and replaced with HBSS containing 4% formaldehyde and 10 μg/mL Hoechst 33342 (25 μL/well) to fix the cells and fluorescently label their chromatin. After incubation at room temperature for 20-30 min, the solution was removed from each well and replaced with HBSS (100 μL/well). Further reagent additions were made to the microplates using the Biomek 2000. After removing the HBSS from each well, cells were permeabilized for 5 min at room temperature with 0.5% (w/w) Triton X-100 in HBSS (10 μL/well). This step extracts a fraction of the soluble cellular components, including soluble tubulin. The wells were washed with HBSS (100 μL/well), followed by addition of a primary antibody solution containing mouse anti-α-tubulin (1:3000) and rabbit anti-phosphohistone H3 (1:500) in HBSS (10 μL/well). After 1 h at room temperature, the wells were washed with HBSS as above, followed by the addition of a secondary antibody solution containing fluorescein-5-isothiocyanate (FITC)-labeled donkey anti-mouse (1:300) and Cy3-labeled donkey anti-rabbit (1:300) antibodies diluted in HBSS (10 μL/well). After 1 h at room temperature, the wells were washed as above, and HBSS was added (100 μL/well). The plates were placed in an ArrayScan® HCS Reader with the Target Activation BioApplication Software coupled to Cellomics® Store and the vHCS™ Discovery Toolbox (Cellomics, Inc.) to analyze images. Briefly, the instrument was used to scan multiple optical fields, each with multiparameter fluorescence, within a subset of the wells of the 384-well microplate. The BioApplication software produced multiple numerical feature values, such as subcellular object intensities, shapes, and location for each cell within an optical field. […] A nuclear mask was generated from Hoechst 33342-stained nuclei, and object identification thresholds and shape parameters were set such that the algorithm identified over 90% of the nuclei in each field. Objects that touched each other or the edge of the image were excluded from the analysis. Tubulin mass was defined as the average green (FITC) pixel intensity in an area defined by the Hoechst-defined nuclear mask. This cytoplasmic area around the nucleus contains cytoskeletal components is a region from which sensitive measurements of cytoplasmic characteristics can be made.

[1] = test system: microtubules (tubulin polymer); test: Radiolabeled ligand binding assays; details: for potency relative to 1 in inhibiting the binding of radiolabeled paclitaxel to microtubules: relative to dictyostatin 1
Method: The abilities of test agents to inhibit the binding of radiolabeled forms of the microtubule stabilizers paclitaxel, discodermolide and epothilone B from tubulin polymer were determined.
[^3H]Paclitaxel, [^3H]discodermolide and [^14C]epothilone B solutions were prepared as 125 μM stock solutions in 50% DMSO. Radiolabeled compound (final concentration, 4.0 μM) and test agents at final concentrations noted in the text and tables were mixed in 50 μL of 4:1 (v/v) 0.75 M aqueous MSG/DMSO and warmed to 37° C. Meanwhile, a reaction mixture containing 0.75 M MSG, 2.5 μM tubulin, and 25 μM ddGTP was prepared and incubated at 37° C. for 30 min to form microtubuless. A 200 μL aliquot of the microtubule mixture was added to the drug mixtures, and incubation continued for 30 min at 37° C. Reaction mixtures were centrifuged in an Eppendorf 5417C centrifuge at 14,000 rpm for 20 min at room temperature. Radiolabel in the supernatants (100 μL) was determined by scintillation spectrometry.

[2] = test agent 4 μM, radiolabel 4.0 μM, 37° C.

| Compound | % Tubulin polymerized by 50 μM test agent (Bovine brain tubulin) [%] | EC50 (Bovine brain tubulin) [µM] | Minimum detectable cellular change, Phosphohistone H3 (HeLa cells) | Minimum detectable cellular change, Tubulin polymer intensity (HeLa cells) | Minimum detectable cellular change, Nuclear condensation (HeLa cells) | potency relative to 1 in inhibiting the binding of radiolabeled paclitaxel to microtubules [1] | Percent inhibition of radiolabel from microtubules, [3H]Paclitaxel [1, 2] | Percent inhibition of radiolabel from microtubules, [3H]Discodermolide [1, 2] | Percent inhibition of radiolabel from microtubules, [14C]Epothilone B [1, 2] | percent polymer formed (in words) (Bovine brain tubulin) |
| --- | --- | --- | --- | --- | --- | --- | --- | --- | --- | --- |
| C=CC=CC(C)C1OC(=O)C=CC=CC(C)C(O)CC(O)C=CC(C)C(O)C(C)CCCCC(O)C1C [Compound 79, (8S,10S,14R,20R)-Tetrahydroxy-(7R,13S,15S,21S)-tetramethyl-(22S)-((1S)-methylpenta-2,4-dienyl)-oxacyclodocosa-3,5,11-trien-2-one] | 91 ± 6 | 14 ± 7 | 34.4 ± 10.5 (4) | 26.9 ± 2.9 (4) | 71.5 ± 18.0 (4) | ca. 60% | 48 ± 3 (3) % | – | – | – |
| C=C/C=C\[C@H](C)[C@@H]1OC(=O)/C=C\C=C\[C@@H](C)[C@@H](O)C[C@H](O)/C=C\[C@H](C)[C@H](O)[C@@H](C)C[C@@H](C)CC[C@@H](O)[C@@H]1C [dictyostatin-1, (8S,10S,14R,20R)-Tetrahydroxy-(7R,13S,15S,17S,21S)-pentamethyl-(22S)-((1S)-methylpenta-2,4-dienyl)oxacyclodocosa-3,5,11-trien-2-one, reference compound] | 99 ± 4 | 3.1 ± 0.2 | 9.6 ± 2.4 (4) | 7.4 ± 2.5 (4) | 32.7 ± 11.7 (3) | – | 75 ± 5 (3) % | 40 ± 3 (3) % | 88 ± 1 (3) % | – |
| C=C/C=C\[C@H](C)[C@H](OC(N)=O)[C@@H](C)[C@H](O)[C@@H](C)C/C(C)=C\[C@H](C)[C@@H](O)[C@@H](C)/C=C\[C@@H](O)C[C@@H]1OC(=O)[C@H](C)[C@@H](O)[C@H]1C [discodermolide, reference compound] | 98 ± 5 | 3.6 ± 0.4 | 38.4 ± 21.9 (2) | 64.6 ± 0.0 (2) | 62.5 (1) | – | 76 ± 6 (4) % | – | 90 ± 1 (3) % | – |
| C=C/C=C\[C@H](C)[C@H](O)[C@@H](C)[C@H](O)CC[C@H](C)C[C@H](C)[C@@H](O)[C@@H](C)/C=C\[C@@H](O)C[C@H](O)[C@H](C)/C=C/C=C\C(=O)OC [Compound 50, (2Z,4E,6R,7S,9S,10Z,12S,13R,14S,16S,19R,20S,21S,22S,23Z)-Methyl-7,9,13,19,21-penta-hydroxy-6,12,14,16,20,22-hexamethylhexacosa-2,4,10,23,25-pentaenoate] | 39 ± 7 | > 50 | 149 ± 23.6 (4) | 219 ± 36 (4) | 479 ± 182 (4) | ca. 60% | 42 ± 1 (3) % | – | – | moderate activity |
| C=CC=CC(C)C1OC(=O)C=CC=CC(C)C(O)CC(O)C=CC(C)C(O)C(C)CC(C)CCC(O)C1C [Compound 59, (8S,10S,14R,20S)-Tetrahydroxy-(7R,13S,15S,17S,21s)-pentamethyl-(22S)-((1S)-methylpenta-2,4-dienyl)-oxacyclodocosa-3,5,11-trien-2-one] | 30 ± 2 | > 50 | 261 ± 91 (4) | 284 ± 108 (4) | 363 ± 146 (2) | – | 7 ± 2 (3) % | – | – | moderate activity |
